Experimental data as given in patent US4728736A, “Carbocyclic analogs of purine ribofuranosides” (priority 1984, dated 1988).
≈ marks a conversion by molar mass, not a printed value.

Tests used:
[1] = tested on: herpes simplex virus, type 1 (strain HF); experiment: Antiviral activity (virus rating); […]; type: cell-based; conditions: H.Ep. 2 cells; for EC50: Human alphaherpesvirus 1, HEp-2, strain HF, read-out: MIC50, Herpes Simplex Type 1; for Virus Rating (VR), Herpes Simplex Type 1: VR 0.5-0.9 marginal to moderate, VR >= 1 definite activity
[2] = tested on: herpes simplex virus, type 1 (strain 377); experiment: Antiviral activity (virus rating); […]; type: cell-based; conditions: strain 377, Vero cells; for Virus Rating (VR), Herpes Simplex Type 1: VR 0.5-0.9 marginal to moderate, VR >= 1 definite activity; for EC50: Human alphaherpesvirus 1, 50% inhibition of virus-induced cytopathogenic effects, read-out: MIC50, Herpes Simplex Type 1
[3] = tested on: vaccinia virus (Lederle Chorioallantoic strain); experiment: microbe, parasite or virus in culture; type: cell-based; conditions: for Virus Rating (VR), Vaccinia Virus: Lederle Chorioallantoic strain, H.Ep. 2 cells, VR 0.5-0.9 marginal to moderate, VR >= 1 definite activity; for EC50: Orthopoxvirus vaccinia, HEp-2, read-out: MIC50, Vaccinia Virus
[4] = tested on: herpes simplex virus, type 1, and vaccinia virus; type: cell-based, type 1; vaccinia virus; conditions: cell culture
[5] = 50% inhibition of virus-induced cytopathogenic effects

SMILES | EC50 [1, 5] | Virus Rating (VR), Herpes Simplex Type 1 ([1]; strain HF) | Virus Rating (VR), Herpes Simplex Type 1 [2] | Virus Rating (VR), Vaccinia Virus [3] | EC50 [3] | EC50 [2] | MIC50, Herpes Simplex Type 1 ([1]; strain HF, 50% inhibition of virus-induced cytopathogenic effects) | inhibiting replication of vaccinia virus (in words) [3] | antiviral activity (in words) [4]
Nc1nc(N)c2nnn([C@@H]3C[C@H](CO)[C@@H](O)[C@H]3O)c2n1 (relative stereo) [Example 6, (1α,2α,3β,5β)-3-(5,7-Diamino-3H-1,2,3-triazolo[4,5-d]pyrimidin-3-yl)-5-(hydroxymethyl)-1,2-cyclopentanediol] | 100 µg/mL (≈ 356 µM) | 1.4 | 0.6 |  |  |  |  |  | 
CNc1nc(N)nc2c1ncn2[C@@H]1C[C@H](CO)[C@@H](O)[C@H]1O (relative stereo) [Example 3, (1α,2α,3β,5β)-3-[2-Amino-6-(methylamino)-9H-purin-9-yl]-5-(hydroxymethyl)-1,2-cyclopentanediol] | 320 µg/mL (≈ 1090 µM) | 1.3 |  |  |  |  |  |  | 
Nc1nc(Cl)c2ncn([C@@H]3C[C@H](CO)[C@@H](O)[C@H]3O)c2n1 (relative stereo) [Example 1, (1α,2α,3β,5β)-3-(2-Amino-6-chloro-9HH-purin-9-yl)-5-(hydroxymethyl)-1,2-cyclopentanediol] | 10 µg/mL (≈ 33.4 µM) | 1.7 |  | 1.2 | 20 µg/mL (≈ 66.7 µM) |  |  |  | 
Nc1nc2c(nnn2[C@@H]2C[C@H](CO)[C@@H](O)[C@H]2O)c(=O)[nH]1 (relative stereo) [Formula IV, Y = O, carbocyclic analog of 8-azaguanosine] |  |  | 2.2 |  |  | 58 µg/mL |  |  | 
Nc1nc(N)c2ncn([C@@H]3C[C@H](CO)[C@@H](O)[C@H]3O)c2n1 (relative stereo) [Example 2, (1α,2α,3β,5β)-3-(2,6-Diamino-9H-purin-9-yl)-5-(hydroxymethyl)-1,2-cyclopentanediol] | 0.32 µg/mL (≈ 1.14 µM) | 4.6 | 2.2 | 3.8 | 2.3 µg/mL (≈ 8.21 µM) | 197 µg/mL (≈ 703 µM) | 0.3 µg/mL (≈ 1.07 µM) | highly active | very high activity
Nc1ncnc2c1ncn2[C@@H]1O[C@H](CO)[C@@H](O)[C@@H]1O [Ara-A, reference compound] | 2.5 to 10 µg/mL (≈ 9.35 to 37.4 µM) | 2.0-2.2 |  |  |  |  |  |  | 
Nc1nc(Cl)c2nnn([C@@H]3C[C@H](CO)[C@@H](O)[C@H]3O)c2n1 (relative stereo) [Formula III, X = Cl, carbocyclic analog of 2-amino-6-chloro-8-azapurine ribofuranoside] | 81 µg/mL | 0.9 |  | 0.6 |  |  |  |  | 
